Measured values as given in PubChem BioAssay AID2060486 (Molecular Pharmacology Branch, DTP, NCI, 2025).
pIC50: −log10 of the molar value.

System: IGROV1 complex spheroids (HUVEC, MSC), viability % test/control
Test: Anticancer human tumor IGROV1 cell line growth inhibition [GQUAD];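 also: spheroids exposed to compounds for 7 days before readout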;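 as to viability, T/C: 100% = DMSO vehicle control viability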
Settings: for pIC50: curve of first compound; for viability, T/C: stronger effect = lower value
How it was run: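 Viability of tumor cells grown as complex spheroids with endothelial and stromal cells, exposed to drug combinations. Top concentration at or near clinical Cmax (else 10 microM), diluted in half-log increments.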

[1] = second compound 0.0316 µM, first compound 0.0316 µM
[2] = second compound 0.0316 µM, first compound 0.1 µM
[3] = second compound 0.0316 µM, first compound 0.316 µM
[4] = second compound 0.0316 µM, first compound 1 µM
[5] = second compound 0.0316 µM, first compound 3.16 µM
[6] = second compound 0.0316 µM, first compound 10 µM
[7] = second compound 0.1 µM, first compound 0.0316 µM
[8] = second compound 0.1 µM, first compound 0.1 µM
[9] = second compound 0.1 µM, first compound 0.316 µM
[10] = second compound 0.1 µM, first compound 1 µM
[11] = second compound 0.1 µM, first compound 3.16 µM
[12] = second compound 0.1 µM, first compound 10 µM
[13] = second compound 0.316 µM, first compound 0.0316 µM
[14] = second compound 0.316 µM, first compound 0.1 µM
[15] = second compound 0.316 µM, first compound 0.316 µM
[16] = second compound 0.316 µM, first compound 1 µM
[17] = second compound 0.316 µM, first compound 3.16 µM
[18] = second compound 0.316 µM, first compound 10 µM
[19] = second compound 1 µM, first compound 0.0316 µM
[20] = second compound 1 µM, first compound 0.1 µM
[21] = second compound 1 µM, first compound 0.316 µM
[22] = second compound 1 µM, first compound 1 µM
[23] = second compound 1 µM, first compound 3.16 µM
[24] = second compound 1 µM, first compound 10 µM
[25] = second compound 3.16 µM, first compound 0.0316 µM
[26] = second compound 3.16 µM, first compound 0.1 µM
[27] = second compound 3.16 µM, first compound 0.316 µM
[28] = second compound 3.16 µM, first compound 1 µM
[29] = second compound 3.16 µM, first compound 3.16 µM
[30] = second compound 3.16 µM, first compound 10 µM
[31] = second compound 10 µM, first compound 0.0316 µM
[32] = second compound 10 µM, first compound 0.1 µM
[33] = second compound 10 µM, first compound 0.316 µM
[34] = second compound 10 µM, first compound 1 µM
[35] = second compound 10 µM, first compound 3.16 µM
[36] = second compound 10 µM, first compound 10 µM

Structure (SMILES): COc1cccc2c1C(=O)c1c(O)c3c(c(O)c1C2=O)CC(O)(C(=O)CO)CC3OC1CC(N)C(O)C(C)O1 (stereo unspecified) + CN(C)c1ccc(Nc2c3ccc(NC(=O)CCN4CCCC4)cc3nc3cc(NC(=O)CCN4CCCC4)ccc23)cc1
- pIC50 (second compound 0.0316 µM): 7.31
- pIC50 (second compound 0.1 µM): 7.31
- pIC50 (second compound 0.316 µM): 7.40
- pIC50 (second compound 1 µM): 7.49
- pIC50 (second compound 3.16 µM): 7.38
- pIC50 (second compound 10 µM): > 7.50
- viability, T/C [1]: 67.7%
- viability, T/C [2]: 21.5%
- viability, T/C [3]: 9.86%
- viability, T/C [4]: 3.36%
- viability, T/C [5]: 0.13%
- viability, T/C [6]: 1.04%
- viability, T/C [7]: 67.9%
- viability, T/C [8]: 20.4%
- viability, T/C [9]: 9.01%
- viability, T/C [10]: 3.31%
- viability, T/C [11]: 0.07%
- viability, T/C [12]: 1.06%
- viability, T/C [13]: 57.2%
- viability, T/C [14]: 21.7%
- viability, T/C [15]: 9.64%
- viability, T/C [16]: 3.48%
- viability, T/C [17]: 0.07%
- viability, T/C [18]: 1.01%
- viability, T/C [19]: 50.5%
- viability, T/C [20]: 25.7%
- viability, T/C [21]: 7.36%
- viability, T/C [22]: 2.77%
- viability, T/C [23]: 0.08%
- viability, T/C [24]: 0.98%
- viability, T/C [25]: 59.6%
- viability, T/C [26]: 18.7%
- viability, T/C [27]: 8.4%
- viability, T/C [28]: 3.44%
- viability, T/C [29]: 0.13%
- viability, T/C [30]: 0.94%
- viability, T/C [31]: 33.5%
- viability, T/C [32]: 15.6%
- viability, T/C [33]: 5.82%
- viability, T/C [34]: 3.29%
- viability, T/C [35]: 0.17%
- viability, T/C [36]: 1.15%

Structure (SMILES): Nc1ccn(C2OC(CO)C(O)C2(F)F)c(=O)n1 (stereo unspecified) + CN(C)c1ccc(Nc2c3ccc(NC(=O)CCN4CCCC4)cc3nc3cc(NC(=O)CCN4CCCC4)ccc23)cc1
- pIC50 (second compound 0.0316 µM): > 7.50
- pIC50 (second compound 0.1 µM): > 7.50
- pIC50 (second compound 0.316 µM): > 7.50
- pIC50 (second compound 1 µM): > 7.50
- pIC50 (second compound 3.16 µM): > 7.50
- pIC50 (second compound 10 µM): > 7.50
- viability, T/C [1]: 11.5%
- viability, T/C [2]: 6.58%
- viability, T/C [3]: 6.05%
- viability, T/C [4]: 6.75%
- viability, T/C [5]: 6.08%
- viability, T/C [6]: 4.2%
- viability, T/C [7]: 12.7%
- viability, T/C [8]: 5.68%
- viability, T/C [9]: 6.81%
- viability, T/C [10]: 6.8%
- viability, T/C [11]: 5.93%
- viability, T/C [12]: 4.32%
- viability, T/C [13]: 13.1%
- viability, T/C [14]: 5.27%
- viability, T/C [15]: 6.2%
- viability, T/C [16]: 6.03%
- viability, T/C [17]: 5.63%
- viability, T/C [18]: 6.07%
- viability, T/C [19]: 11.6%
- viability, T/C [20]: 5.93%
- viability, T/C [21]: 7.47%
- viability, T/C [22]: 6.02%
- viability, T/C [23]: 6.39%
- viability, T/C [24]: 5.81%
- viability, T/C [25]: 10.2%
- viability, T/C [26]: 5.96%
- viability, T/C [27]: 6.33%
- viability, T/C [28]: 5.69%
- viability, T/C [29]: 5.78%
- viability, T/C [30]: 4.9%
- viability, T/C [31]: 6.83%
- viability, T/C [32]: 4.85%
- viability, T/C [33]: 4.16%
- viability, T/C [34]: 4.94%
- viability, T/C [35]: 4.47%
- viability, T/C [36]: 4.53%

Structure (SMILES): O=c1[nH]cc(F)c(=O)[nH]1 + CN(C)c1ccc(Nc2c3ccc(NC(=O)CCN4CCCC4)cc3nc3cc(NC(=O)CCN4CCCC4)ccc23)cc1
- pIC50 (second compound 0.0316 µM): 5.19
- pIC50 (second compound 0.1 µM): 5.17
- pIC50 (second compound 0.316 µM): 5.19
- pIC50 (second compound 1 µM): 5.23
- pIC50 (second compound 3.16 µM): 5.21
- pIC50 (second compound 10 µM): 5.43
- viability, T/C [1]: 112%
- viability, T/C [2]: 96.7%
- viability, T/C [3]: 104%
- viability, T/C [4]: 82.3%
- viability, T/C [5]: 90.6%
- viability, T/C [6]: 27.7%
- viability, T/C [7]: 97.6%
- viability, T/C [8]: 94%
- viability, T/C [9]: 83.1%
- viability, T/C [10]: 84.3%
- viability, T/C [11]: 90.4%
- viability, T/C [12]: 29.8%
- viability, T/C [13]: 92.1%
- viability, T/C [14]: 87.8%
- viability, T/C [15]: 96.8%
- viability, T/C [16]: 88.2%
- viability, T/C [17]: 83%
- viability, T/C [18]: 29.1%
- viability, T/C [19]: 69.5%
- viability, T/C [20]: 72%
- viability, T/C [21]: 78.8%
- viability, T/C [22]: 90.8%
- viability, T/C [23]: 90.4%
- viability, T/C [24]: 24.2%
- viability, T/C [25]: 73.3%
- viability, T/C [26]: 84.8%
- viability, T/C [27]: 94.1%
- viability, T/C [28]: 86.2%
- viability, T/C [29]: 81%
- viability, T/C [30]: 27.7%
- viability, T/C [31]: 66.5%
- viability, T/C [32]: 58%
- viability, T/C [33]: 52.8%
- viability, T/C [34]: 70.1%
- viability, T/C [35]: 55.2%
- viability, T/C [36]: 16.4%
